Reference: ChEMBL document CHEMBL5634127, “Synthesis of novel rhodamine type Anthrone Spiro-lactam (ASL) analogues and evaluation of antiviral activity against dengue and chikungunya viruses” (Eur J Med Chem, 2023)
The source made the active and inactive calls. The rule behind the calls is not given here.

Legend:
[1] = Cytotoxicity against green monkey Vero cells incubated for 5 days by MTT assay; format: toxicity, cell-based; conditions: chlorocebus sabaeus, time 5 day
[2] = Cytotoxicity against green monkey Vero cells assessed as cell viability at 0.78 to 100 uM incubated for 5 days by MTT assay relative to control; format: toxicity, cell-based; conditions: chlorocebus sabaeus, dose 0.78-100 µM, time 5 day, read-out: Activity
Dengue virus [3] = assay: Antiviral activity against Dengue virus infected in green monkey Vero cells assessed as reduction in colony forming unit at 50 uM incubated for 1 hr after the virus infection and measured after 120 hrs by focus forming unit assay; format: functional; conditions: time 121 hrs
Dengue virus [4] = assay: Antiviral activity against Dengue virus infected in green monkey Vero cells assessed as reduction in colony forming unit incubated for 1 hr after the virus infection and measured after 120 hrs by focus forming unit assay; format: functional, organism-based; conditions: time 121.0 hrs
Dengue virus [5] = assay: Antiviral activity against Dengue virus infected in green monkey Vero cells assessed as reduction in viral titer at 50 uM incubated for 1 hr after the virus infection and measured after 120 hrs by focus forming unit assay (reference value: 6.134 log10FFU/ml); format: functional; conditions: time 121 hrs
Chikungunya virus [6] = assay: Antiviral activity against Chikungunya virus infected in green monkey Vero cells assessed as reduction in viral growth at 50 uM preincubated for 1 hr with compound followed by virus infection and measured after 24 hrs by focus forming unit assay; format: functional, organism-based; conditions: time 25.0 hrs
Chikungunya virus [7] = assay: Antiviral activity against Chikungunya virus infected in green monkey Vero cells assessed as reduction in viral growth at 50 uM incubated for 1 hr along with virus infection and measured after 24 hrs by focus forming unit assay; format: functional, organism-based; conditions: time 25.0 hrs
Dengue virus [8] = assay: Antiviral activity against Dengue virus infected in green monkey Vero cells assessed as reduction in viral titer at 100 uM incubated for 1 hr after the virus infection and measured after 120 hrs by focus forming unit assay (reference value: 6.134 log10FFU/ml); format: functional; conditions: time 121 hrs
Dengue virus [9] = assay: Antiviral activity against Dengue virus infected in green monkey Vero cells assessed as reduction in colony forming unit at 100 uM incubated for 1 hr after the virus infection and measured after 120 hrs by focus forming unit assay; format: functional; conditions: time 121 hrs
Chikungunya virus [10] = assay: Antiviral activity against Chikungunya virus infected in green monkey Vero cells assessed as reduction in viral growth at 100 uM preincubated for 1 hr with compound followed by virus infection and measured after 24 hrs by focus forming unit assay; format: functional, organism-based; conditions: time 25.0 hrs
Chikungunya virus [11] = assay: Antiviral activity against Chikungunya virus infected in green monkey Vero cells assessed as reduction in viral growth at 100 uM incubated for 1 hr along with virus infection and measured after 24 hrs by focus forming unit assay; format: functional, organism-based; conditions: time 25.0 hrs
Chikungunya virus [12] = assay: Antiviral activity against Chikungunya virus infected in green monkey Vero cells assessed as reduction in viral growth at 3.125 uM preincubated for 1 hr with compound followed by virus infection and measured after 24 hrs by focus forming unit assay; format: functional, organism-based; conditions: time 25.0 hrs
Chikungunya virus [13] = assay: Antiviral activity against Chikungunya virus infected in green monkey Vero cells assessed as reduction in viral growth at 3.125 uM incubated for 1 hr along with virus infection and measured after 24 hrs by focus forming unit assay; format: functional, organism-based; conditions: time 25.0 hrs
Chikungunya virus [14] = assay: Antiviral activity against Chikungunya virus infected in green monkey Vero cells assessed as reduction in colony forming unit at 50 uM incubated for 1 hr after the virus infection and measured after 24 hrs by focus forming unit assay; format: functional; conditions: time 25 hrs
Chikungunya virus [15] = assay: Antiviral activity against Chikungunya virus infected in green monkey Vero cells assessed as reduction in viral growth incubated for 1 hr after the virus infection and measured after 24 hrs by focus forming unit assay; format: functional, organism-based; conditions: time 25.0 hrs
Dengue virus [16] = assay: Antiviral activity against Dengue virus infected in green monkey Vero cells assessed as reduction in viral titer at 25 uM incubated for 1 hr after the virus infection and measured after 120 hrs by focus forming unit assay (reference value: 6.134 log10FFU/ml); format: functional; conditions: time 121 hrs
Chikungunya virus [17] = assay: Antiviral activity against Chikungunya virus infected in green monkey Vero cells assessed as reduction in viral growth at 6.25 uM preincubated for 1 hr with compound followed by virus infection and measured after 24 hrs by focus forming unit assay; format: functional, organism-based; conditions: time 25.0 hrs
Chikungunya virus [18] = assay: Antiviral activity against Chikungunya virus infected in green monkey Vero cells assessed as reduction in viral growth at 6.25 uM incubated for 1 hr along with virus infection and measured after 24 hrs by focus forming unit assay; format: functional, organism-based; conditions: time 25.0 hrs
Dengue virus [19] = assay: Antiviral activity against Dengue virus infected in green monkey Vero cells assessed as reduction in colony forming unit incubated for 1 hr along with virus infection and measured after 120 hrs by focus forming unit assay; format: functional, organism-based; conditions: time 121.0 hrs
Dengue virus [20] = assay: Antiviral activity against Dengue virus infected in green monkey Vero cells assessed as reduction in colony forming unit at 12.5 uM incubated for 1 hr along with virus infection and measured after 120 hrs by focus forming unit assay (reference value: 5.187 log10FFU/ml); format: functional; conditions: time 121 hrs
Chikungunya virus [21] = assay: Antiviral activity against Chikungunya virus infected in green monkey Vero cells assessed as reduction in viral growth at 12.5 uM preincubated for 1 hr with compound followed by virus infection and measured after 24 hrs by focus forming unit assay; format: functional, organism-based; conditions: time 25.0 hrs
Chikungunya virus [22] = assay: Antiviral activity against Chikungunya virus infected in green monkey Vero cells assessed as reduction in viral growth at 12.5 uM incubated for 1 hr along with virus infection and measured after 24 hrs by focus forming unit assay; format: functional, organism-based; conditions: time 25.0 hrs

SMILES	CC50 at 120 h [1] [µM]	viability at 120 h, up to 100 µM [2] [%]	Activity (Dengue virus [4])	Remaining viral titer (Dengue virus [5]) [log10FFU/ml]	Activity (Chikungunya virus [6])	Activity (Chikungunya virus [7])	also measured
COc1cc2c(cc1OC)C1(c3cc(OC)c(OC)cc3C2=O)c2cc(OC)c(OC)cc2C(=O)N1/N=C/c1ccc(Br)cc1	181	≥ 90	Dose-Dependent Effect	5.431	inactive	inactive	Activity (Dengue virus [3]): >=1 log10CFU
COc1cc2c(cc1OC)C1(c3cc(OC)c(OC)cc3C2=O)c2cc(OC)c(OC)cc2C(=O)N1/N=C/c1ccccc1	> 100	≥ 90	Dose-Dependent Effect				Activity (Dengue virus [8]): 5.03 log10FFU/ml; Activity (Dengue virus [9]): >=1 log10CFU; Activity (Chikungunya virus [10]): inactive; Activity (Chikungunya virus [11]): inactive
COc1cc2c(cc1OC)C1(c3cc(OC)c(OC)cc3C2=O)c2cc(OC)c(OC)cc2C(=O)N1/N=C/c1cccs1	52.7	≥ 90					Activity (Chikungunya virus [12]): inactive; Activity (Chikungunya virus [13]): inactive
COc1cc2c(cc1OC)C1(c3cc(OC)c(OC)cc3C2=O)c2cc(OC)c(OC)cc2C(=O)N1/N=C/c1c2ccccc2cc2ccccc12	352	≥ 90			inactive	inactive	
COc1cc2c(cc1OC)C1(c3cc(OC)c(OC)cc3C2=O)c2cc(OC)c(OC)cc2C(=O)N1/N=C/c1cc(OC)c(OC)c(OC)c1	99.8	≥ 90	Dose-Dependent Effect	4.098	inactive	inactive	Activity (Dengue virus [3]): >=1 log10CFU; Activity (Chikungunya virus [14]): >=1 log10CFU; Activity (Chikungunya virus [15]): Dose-Dependent Effect; Activity (Dengue virus [16]): 5.064 log10FFU/ml
COc1cc2c(cc1OC)C1(c3cc(OC)c(OC)cc3C2=O)c2cc(OC)c(OC)cc2C(=O)N1NC(=O)c1cc(C(F)(F)F)cc(C(F)(F)F)c1	98.9	≥ 90			inactive	inactive	Activity (Chikungunya virus [14]): >=1 log10CFU; Activity (Chikungunya virus [15]): Dose-Dependent Effect
COc1cc2c(cc1OC)C1(c3cc(OC)c(OC)cc3C2=O)c2cc(OC)c(OC)cc2C(=O)N1/N=C/c1ccc2ccccc2n1	100	≥ 90					Activity (Chikungunya virus [17]): inactive; Activity (Chikungunya virus [18]): inactive
COc1cc2c(cc1OC)C1(c3cc(OC)c(OC)cc3C2=O)c2cc(OC)c(OC)cc2C(=O)N1/N=C/c1cc(OC)c(O)c(OC)c1	> 100	≥ 90	Dose-Dependent Effect	5.052			Activity (Dengue virus [8]): 3.994 log10FFU/ml; Activity (Dengue virus [9]): >=1 log10CFU; Activity (Chikungunya virus [10]): inactive; Activity (Chikungunya virus [11]): inactive
COc1cc2c(cc1OC)C1(c3cc(OC)c(OC)cc3C2=O)c2cc(OC)c(OC)cc2C(=O)N1/N=C/c1ccc(N(C)C)cc1	122	≥ 90			inactive	inactive	
COc1cc(/C=N/N2C(=O)c3cc(OC)c(OC)cc3C23c2cc(OC)c(OC)cc2C(=O)c2cc(OC)c(OC)cc23)ccc1O	113	≥ 90	Dose-Dependent Effect	5.23	inactive	inactive	Activity (Dengue virus [3]): >=1 log10CFU
COc1cc2c(cc1OC)C1(c3cc(OC)c(OC)cc3C2=O)c2cc(OC)c(OC)cc2C(=O)N1NC(=O)c1ccc([N+](=O)[O-])cc1	97.3	≥ 90			inactive	inactive	
COc1cc2c(cc1OC)C1(c3cc(OC)c(OC)cc3C2=O)c2cc(OC)c(OC)cc2C(=O)N1/N=C/c1ccccc1O	173	≥ 90					Activity (Dengue virus [19]): Dose-Dependent Effect; Activity (Dengue virus [20]): 4.101 log10FFU/ml; Activity (Chikungunya virus [21]): inactive; Activity (Chikungunya virus [22]): inactive
